In patent US20250313564A1, “ACIDIC SALT OR CRYSTAL FORM OF NITROGEN-CONTAINING FUSED RING DERIVATIVE INHIBITOR, AND PREPARATION METHOD THEREFOR AND USE THEREOF” (SHANGHAI HANSOH BIOMEDICAL CO., LTD., priority 2022, published 2025):

Columns and labels:
[1] = system: luteinizing hormone (LH) in plasma of bilaterally ovariectomized (OVX) rats; assay: Effect on luteinizing hormone (LH) content in plasma of bilaterally ovariectomized (OVX) rats; type: in vivo; conditions: oral 30 mg/kg, plasma LH 0-8 h
Description: The purpose of this test example is to measure the effect of compounds on luteinizing hormone (LH) in plasma of bilaterally ovariectomized (OVX) rats.
• CMCNa (30036365, Sinopharm Chemical Reagent Co., Ltd.); • Tween 80 (30189828, Sinopharm Chemical Reagent Co., Ltd.); • Rat LH ELISA Kit (S-type) purchased from Shibayagi Japan, with catalog number of AKRLH-010S, comprising Assay buffer C, Sample dilution buffer G, Washing buffer, biotinylated anti-LHα antibody, HRP-conjugated streptavidin and Chromogen (TMB).
Bilaterally ovariectomized SD rats, aged 10 weeks, female, purchased from Beijing Vital River Laboratory Animal Technology Co., Ltd. The animals were kept in SPF-grade animal room, with 5 SD rats/cage. […]
Sample detection: All reagents, samples and ELISA plates were transferred to room temperature 20° C.-25° C. and equilibrated for at least 30 min, and dissolution, vortex and centrifugation were performed for later use. […] The OD value of each well was read using the microplate reader at a wavelength of 450 nm.
Graphpad was used to draw a standard curve, and sample concentrations were calculated. If the dilution was performed during the sample detection, the calculated sample concentration needed to be multiplied by the corresponding dilution ratio in the final calculation, which was the actual concentration of the sample.

[2] = Stability of sample of crystal form A (illumination, high temperature, high humidity); type: physicochemical
Procedure: The free base crystal form A of compound 3 of the present invention was taken to prepare a sample, the sample was placed under the conditions of illumination 5000 lx, high temperature 60° C., high humidity 92.5% RH, and high temperature and high humidity 50° C. 75% RH, the 5-day stability and 10-day stability were investigated, a HPLC external standard method was used to determine the content, and a chromatographic peak area normalization method was used to calculate the change in related substances.

[3] = Hygroscopicity of sample of crystal form A; type: physicochemical
Procedure: The free base crystal form A of compound 3 was placed in saturated water vapor at different relative humidities to allow the compound to reach a dynamic equilibrium with the water vapor, and the percentage of weight gain after moisture absorption of the compound after equilibrium was calculated.

[4] = high humidity 92.5% RH, 10 days
[5] = high temperature 60° C., 5 days
[6] = high temperature 60° C., 10 days
[7] = high temperature and high humidity 50° C. 75% RH, 5 days
[8] = high temperature and high humidity 50° C. 75% RH, 10 days

| % Increase in total impurity ([2]; high humidity 92.5% RH, 5 days) | % Maximum increase in single impurity ([2]; high humidity 92.5% RH, 5 days) | % Increase in total impurity [2, 4] | % Maximum increase in single impurity [2, 4] | % Increase in total impurity [2, 5] | % Maximum increase in single impurity [2, 5] | % Increase in total impurity [2, 6] | % Maximum increase in single impurity [2, 6] | % Increase in total impurity [2, 7] | % Maximum increase in single impurity [2, 7] | % Increase in total impurity [2, 8] | % Maximum increase in single impurity [2, 8] | % Increase in total impurity ([2]; illumination 5000 lx, 5 days) | % Maximum increase in single impurity ([2]; illumination 5000 lx, 5 days) | % Increase in total impurity ([2]; illumination 5000 lx, 10 days) | % Maximum increase in single impurity ([2]; illumination 5000 lx, 10 days) | crystal form change (XRPD) after moisture absorption and desorption ([3]; 2 cycles, 0-95% relative humidity) | hygroscopicity (in words) ([3]; RH 80%) | weight gain after moisture absorption ([3]; RH 80%) | SMILES | ΣAUC (ΔLH/LH · h, Mean ± SD) [1] |
| --- | --- | --- | --- | --- | --- | --- | --- | --- | --- | --- | --- | --- | --- | --- | --- | --- | --- | --- | --- | --- |
|  |  |  |  |  |  |  |  |  |  |  |  |  |  |  |  |  |  |  | [2H]c1cc(C(=O)N2CCn3c(-c4nc(Cl)ns4)nnc3[C@H]2C)ccc1F [Compound 3, (R)-(3-(3-chloro-1,2,4-thiadiazol-5-yl)-8-methyl-5,6-dihydro-[1,2,4]triazolo[4,3-a]pyrazin-7(8H)-yl)(4-fluorophenyl-3-d)methanone] | −5.44 ± 3.02 ΔLH/LH · h |
| <0.02% | 0.06% | <0.02% | 0.07% | 0.12% | 0.07% | <0.02% | 0.07% | <0.02% | 0.03% | <0.02% | <0.02% | <0.02% | 0.03% | <0.02% | 0.05% | no crystal form transformation | weak hygroscopicity | about 0.2720% | [2H]c1cc(C(=O)N2CCn3c(-c4nc(Cl)ns4)nnc3[C@H]2C)ccc1F [free base crystal form A, (R)-(3-(3-chloro-1,2,4-thiadiazol-5-yl)-8-methyl-5,6-dihydro-[1,2,4]triazolo[4,3-a]pyrazin-7(8H)-yl)(4-fluorophenyl-3-d)methanone] |  |
